In ChEMBL document CHEMBL2074111, “Functional characterization of the rat mdr1b encoded P-glycoprotein: not all inducing agents are substrates” (Carcinogenesis, 1997) one finds Activity data, which are given here for one compound.

This data set concerns the target ATP-dependent translocase ABCB1 (Rattus norvegicus, UniProt P43245). Kind of data set: TP_TRANSPORTER: intracellular accumulation in mdr1b-expressing NIH3T3 cells. The note with it: mouse. The format is functional, cell-based.

SMILES strings stand for the structures.

Chain of ATP-dependent translocase ABCB1 (P43245 whole entry): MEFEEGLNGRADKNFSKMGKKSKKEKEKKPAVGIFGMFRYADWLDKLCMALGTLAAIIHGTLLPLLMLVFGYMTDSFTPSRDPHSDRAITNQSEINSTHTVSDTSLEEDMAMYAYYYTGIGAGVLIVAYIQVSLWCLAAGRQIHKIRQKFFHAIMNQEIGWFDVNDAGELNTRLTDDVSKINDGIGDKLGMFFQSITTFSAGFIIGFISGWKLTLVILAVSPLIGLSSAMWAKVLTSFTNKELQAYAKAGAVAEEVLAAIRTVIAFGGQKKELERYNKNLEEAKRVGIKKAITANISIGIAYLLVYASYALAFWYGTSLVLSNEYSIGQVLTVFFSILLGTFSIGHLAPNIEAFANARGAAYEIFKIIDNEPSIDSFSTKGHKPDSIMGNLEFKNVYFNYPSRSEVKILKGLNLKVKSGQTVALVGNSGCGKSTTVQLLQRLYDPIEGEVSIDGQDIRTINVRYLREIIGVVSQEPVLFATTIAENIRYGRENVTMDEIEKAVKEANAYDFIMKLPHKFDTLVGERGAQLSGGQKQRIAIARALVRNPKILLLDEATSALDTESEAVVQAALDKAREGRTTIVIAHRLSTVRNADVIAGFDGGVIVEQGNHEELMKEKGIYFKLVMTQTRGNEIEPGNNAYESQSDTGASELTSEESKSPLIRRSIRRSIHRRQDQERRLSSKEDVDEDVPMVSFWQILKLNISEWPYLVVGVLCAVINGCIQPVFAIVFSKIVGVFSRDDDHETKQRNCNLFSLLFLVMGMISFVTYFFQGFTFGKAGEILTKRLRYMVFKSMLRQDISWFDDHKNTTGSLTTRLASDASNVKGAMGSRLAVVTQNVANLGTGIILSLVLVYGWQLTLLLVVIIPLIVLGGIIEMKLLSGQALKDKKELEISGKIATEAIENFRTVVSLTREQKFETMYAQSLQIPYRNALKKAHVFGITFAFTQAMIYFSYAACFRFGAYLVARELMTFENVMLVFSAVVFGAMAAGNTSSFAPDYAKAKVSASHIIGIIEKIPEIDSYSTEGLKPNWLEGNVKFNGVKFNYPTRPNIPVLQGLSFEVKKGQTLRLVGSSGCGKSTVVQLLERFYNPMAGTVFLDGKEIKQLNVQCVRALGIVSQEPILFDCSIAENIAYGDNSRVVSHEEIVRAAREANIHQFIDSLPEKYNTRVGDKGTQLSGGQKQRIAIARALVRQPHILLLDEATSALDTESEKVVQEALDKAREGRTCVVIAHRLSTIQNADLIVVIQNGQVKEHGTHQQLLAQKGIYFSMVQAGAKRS

With `COC(=O)c1ccccc1-c1c2ccc(=N)cc-2oc2cc(N)ccc12.Cl` [RHODAMINE123], the Activity entry is “substrate [+]”.
